Results on 2 compounds are retold here after BindingDB's records for doi:10.1021/acsmedchemlett.9b00575 (Duke University, 2020).

The structures appear in SMILES notation.

One test deals with D(1A) dopamine receptor (Homo sapiens, UniProt P21728). Description: Agonist activity at D1R (unknown origin) transfected in human HEK293T cells assessed as increase in cAMP accumulation incubated for 2 hrs by cAMP Glo-sensor assay.
Another test addresses D(2) dopamine receptor (Homo sapiens, UniProt P14416). Description: Agonist activity at C-terminal RLuc8-fused D2 long receptor (unknown origin) transfected in human HEK293T cells co-expressing N-terminal Venus-tagged beta-arrestin2 assessed as increase in beta-arrestin2 recruitment measured after 5 mins in presence of coelenterazine H by BRET assay.

D(2) dopamine receptor, sequence (P14416 whole entry, the tested form may be a part): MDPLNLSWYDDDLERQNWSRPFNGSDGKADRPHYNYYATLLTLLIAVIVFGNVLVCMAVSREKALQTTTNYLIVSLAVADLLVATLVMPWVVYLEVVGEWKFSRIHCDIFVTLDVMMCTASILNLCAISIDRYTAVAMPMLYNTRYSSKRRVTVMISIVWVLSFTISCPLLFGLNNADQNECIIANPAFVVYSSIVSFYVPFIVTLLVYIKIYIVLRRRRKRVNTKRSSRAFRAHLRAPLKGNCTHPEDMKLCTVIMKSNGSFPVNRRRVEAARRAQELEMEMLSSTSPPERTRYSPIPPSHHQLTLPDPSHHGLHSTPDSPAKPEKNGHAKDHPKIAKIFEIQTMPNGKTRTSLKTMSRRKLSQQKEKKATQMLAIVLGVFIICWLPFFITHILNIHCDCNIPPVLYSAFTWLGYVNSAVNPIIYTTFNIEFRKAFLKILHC
D(1A) dopamine receptor, sequence (P21728 whole entry, the tested form may be a part): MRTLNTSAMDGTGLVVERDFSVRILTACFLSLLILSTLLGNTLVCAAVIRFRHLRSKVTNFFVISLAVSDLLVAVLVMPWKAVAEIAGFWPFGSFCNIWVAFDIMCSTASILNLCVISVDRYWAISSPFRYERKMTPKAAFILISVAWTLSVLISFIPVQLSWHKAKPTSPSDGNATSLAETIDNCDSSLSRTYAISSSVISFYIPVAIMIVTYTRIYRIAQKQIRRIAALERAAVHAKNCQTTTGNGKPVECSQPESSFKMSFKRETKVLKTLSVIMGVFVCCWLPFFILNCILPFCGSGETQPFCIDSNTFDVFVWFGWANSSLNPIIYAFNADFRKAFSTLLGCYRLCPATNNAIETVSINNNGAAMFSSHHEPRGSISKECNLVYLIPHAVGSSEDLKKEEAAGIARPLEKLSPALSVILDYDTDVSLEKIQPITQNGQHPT

On to `CN1CCc2cccc3c2[C@H]1Cc1ccc2c(c1-3)OCO2`, for which the EC50 on D(1A) dopamine receptor was 100 nM. Take `CC(=O)Oc1c(Br)cc2c(c1OC(C)=O)-c1cccc3c1[C@@H](C2)N(C)CC3`: the EC50 on D(2) dopamine receptor was 1260 nM.
